Reference: patent US6900354B2, “3-phenyl-propionamido, 3-phenyl-acrylamido and 3-phenyl-propynamido derivatives” (Hoffman-La Roche Inc., priority 2002, dated 2005)

Columns and labels:
human MAO-B = biological target: T1, human MAO-B (Homo sapiens, UniProt P27338); experiment: MAO-B enzymatic activity, spectrophotometric assay (Amplex Red, tyramine) on membranes of transfected EBNA cells; type: biochemical; conditions: substrate tyramine, 30 min preincubation at 37° C., pH 7.4
T1 construct: expressed in transfected cells; host or cells: EBNA cells (transient transfection); membranes by centrifugation at 45,000 x g
T1 sequence (P27338 1-520): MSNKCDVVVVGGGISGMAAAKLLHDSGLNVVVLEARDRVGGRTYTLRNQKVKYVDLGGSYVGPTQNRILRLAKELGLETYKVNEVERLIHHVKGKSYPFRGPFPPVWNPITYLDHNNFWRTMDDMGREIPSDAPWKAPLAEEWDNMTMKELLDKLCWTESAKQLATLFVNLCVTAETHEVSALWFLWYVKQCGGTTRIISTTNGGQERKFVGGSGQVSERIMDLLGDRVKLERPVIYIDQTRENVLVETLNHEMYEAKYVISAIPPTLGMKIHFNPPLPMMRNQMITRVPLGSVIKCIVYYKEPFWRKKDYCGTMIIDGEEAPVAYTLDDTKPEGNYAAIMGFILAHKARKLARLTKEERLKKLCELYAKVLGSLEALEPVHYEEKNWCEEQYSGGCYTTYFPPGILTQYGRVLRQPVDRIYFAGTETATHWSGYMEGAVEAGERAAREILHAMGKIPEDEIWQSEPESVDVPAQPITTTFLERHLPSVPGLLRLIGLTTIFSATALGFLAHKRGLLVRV
Protocol: (§1) The pharmacological activity of the compounds was tested using the following method. The cDNAs encoding human MAO-A and MAO-B were transiently transfected into EBNA cells using the procedure described by Schlaeger and Christensen [Transient Gene Expression in Mammalian Cells Grown in Serum-free Suspension Culture; Cytotechnology, 15:1-13 (1998)]. After transfection, cells were homogenised by means of a Polytron homogenizer in 20 mM Tris HCl buffer, pH 8.0, containing 0.5 mM EGTA and 0.5 mM phenylmethanesulfonyl fluoride. Cell membranes were obtained by centrifugation at 45,000×g and, after two rinsing step with 20 mM Tris HCl buffer, pH 8.0, containing 0.5 mM EGTA, membranes were eventually re-suspended in the above buffer and aliquots stored at −80° C. until use.
(§2) MAO-A and MAO-B enzymatic activity was assayed in 96-well-plates using a spectrophotometric assay adapted from the method described by Zhou and Panchuk-Voloshina [A One-Step Fluorometric Method for the Continuous Measurement of Monoamine Oxidase Activity, Analytical Biochemistry 253:169-174 (1997)]. Briefly, membrane aliquots were incubated in 0.1 M potassium phosphate buffer, pH 7.4, for 30 min at 37° C. with or without various concentrations of the compounds. After this period, the enzymatic reaction was started by the addition of the MAO substrate tyramine together with 1 U/ml horse-radish peroxidase (Roche Biochemicals) and 80 μM N-acetyl-3,7,-dihydroxyphenoxazine (Amplex Red, Molecular Probes). The samples were further incubated for 30 min at 37° C. in a final volume of 200 μl and absorbance was then determined at a wavelength of 570 nm using a SpectraMax plate reader (Molecular Devices). Background (non-specific) absorbance was determined in the presence of 10 μM clorgyline for MAO-A or 10 μM L-deprenyl for MAO-B.
(§3) IC50 values were determined from inhibition curves obtained using nine inhibitor concentrations in duplicate, by fitting data to a four parameter logistic equation using a computer program.

human MAO-A = biological target: T2, human MAO-A (Homo sapiens, UniProt P21397); experiment: MAO-A enzymatic activity, spectrophotometric assay (Amplex Red, tyramine) on membranes of transfected EBNA cells; type: biochemical; conditions: heading: MAO-A IC50, substrate tyramine, 30 min preincubation at 37° C., pH 7.4
T2 construct: expressed in transfected cells; host or cells: EBNA cells (transient transfection); membranes by centrifugation at 45,000 x g
T2 sequence (P21397 1-527): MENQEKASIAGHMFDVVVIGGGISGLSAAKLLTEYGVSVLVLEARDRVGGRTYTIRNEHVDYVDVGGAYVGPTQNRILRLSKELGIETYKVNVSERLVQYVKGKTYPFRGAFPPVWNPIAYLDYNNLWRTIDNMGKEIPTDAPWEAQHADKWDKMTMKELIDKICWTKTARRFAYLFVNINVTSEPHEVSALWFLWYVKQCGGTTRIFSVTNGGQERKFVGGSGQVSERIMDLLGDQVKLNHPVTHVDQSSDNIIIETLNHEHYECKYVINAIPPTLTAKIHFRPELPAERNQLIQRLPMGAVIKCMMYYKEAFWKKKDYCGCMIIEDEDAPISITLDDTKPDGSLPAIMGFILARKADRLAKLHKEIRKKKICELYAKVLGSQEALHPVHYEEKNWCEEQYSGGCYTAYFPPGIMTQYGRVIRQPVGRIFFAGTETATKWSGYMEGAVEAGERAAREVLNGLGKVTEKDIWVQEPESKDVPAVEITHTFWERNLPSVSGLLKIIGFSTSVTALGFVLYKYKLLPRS
Protocol: as §1, §2, §3

SMILES	IC50 (human MAO-B) [nM]	IC50 (human MAO-A) [nM]
CC(=Cc1ccc(OCc2cccc(F)c2)cc1)C(N)=O [Example 1, 3-[4-(3-Fluoro-benzyloxy)-phenyl]-2-methyl-acrylamide]	83	> 10000
CNC(=O)C(C)Cc1ccc(OCc2cccc(F)c2)cc1 (stereo not drawn) [Example 4, 3-[4-(3-Fluoro-benzyloxy)-phenyl]-2,N-dimethyl-propionamide]	29	> 10000
NC(=O)C#Cc1ccc(OCc2cccc(F)c2)cc1 [Example 5, 3-[4-(3-Fluoro-benzyloxy)-phenyl]-propynoic acid amide]	98	5620
